For data set [1], the target named is hAChE (Homo sapiens, UniProt P22303). The data set is described as follows: In vitro hAChE inhibition assay. The data set is classed as biochemical. Particulars: for selectivity index hBChE/hAChE: IC50 of hBChE/IC50 of hAChE.
The target of data set [2] is hBChE (Equus caballus, UniProt P81908). The data set is described as follows: In vitro hBChE inhibition assay. It counts as biochemical, human.
In data set [3] the target is hBACE-1 (Homo sapiens, UniProt P56817). Put plainly: biochemical.
In data set [4] the target is PAS-AChE (hAChE-PAS region) (Homo sapiens, UniProt P22303). Put plainly: Propidium iodide displacement assay. The data set is classed as binding.
The conditions of data set [5]: n = 3, mean ± SEM.
The nature of data set [6]: in vitro. Particulars: PAMPA, pH 7.4.
Data set [7] deals with Aβ1–42 (Homo sapiens, UniProt P05067). The data set is described as follows: Self-induced Aβ aggregation inhibition thioflavin T assay. It counts as biochemical. Particulars: compound 5, 10 and 20 μM; Aβ 10 μM.
Data set [8] deals with scopolamine-induced rat model. Put plainly: Scopolamine-induced Y-maze test. The data set is classed as in vivo, Wistar rats. Particulars: SD-6 2.5, 5, 10 mg/kg p.o.; donepezil 5 mg/kg p.o.; 7 days; vs scopolamine group.
Data set [9] relates to ICV Aβ1–42-induced rat model. The data set is described as follows: Aβ-induced Morris water maze test. Particulars: SD-6 10 mg/kg, donepezil 5 mg/kg, orally 9 days; vs Aβ group.
The test system of data set [10] is differentiated SH-SY5Y cells. The data set is described as follows: Neurotoxicity estimation. The data set is classed as cell-based. Particulars: 10, 20, 40 and 80 μM, 24 h.
Data set [11] concerns nondifferentiated SH-SY5Y cells. The data set is described as follows: Neuroprotective estimation. It counts as cell-based. Particulars: Homo sapiens, 24 h, read-out: cell viability.
Data set [12] concerns the target Aβ1–42 with hAChE (Homo sapiens, UniProt P22303). Put plainly: hAChE-induced Aβ aggregation inhibition thioflavin T assay. It counts as biochemical. The conditions noted are these: compound 5, 10 and 20 μM; Aβ 10 μM.
Setting [13] is: hAChE inhibitory activity (good/moderate/poor), class in words.

SMILES strings stand for the structures. Values joined by “and” are separate entries in the source; they are usually repeats but may differ in a detail not shown here. Identical values can stand only once. Like-named read-outs stand apart in the source and are kept apart here.

The term IC50 denotes the point on the concentration scale where inhibition reaches its midpoint. A lower IC50 goes with inhibition by little substance. As usually defined, the Papp is a coefficient for how fast a substance crosses the barrier. Low readings indicate slow passage, high ones fast passage. As usually defined, the viability is a read-out of living cells in per cent, often relative to untreated cells.

Sequence of hBChE (P81908 whole entry): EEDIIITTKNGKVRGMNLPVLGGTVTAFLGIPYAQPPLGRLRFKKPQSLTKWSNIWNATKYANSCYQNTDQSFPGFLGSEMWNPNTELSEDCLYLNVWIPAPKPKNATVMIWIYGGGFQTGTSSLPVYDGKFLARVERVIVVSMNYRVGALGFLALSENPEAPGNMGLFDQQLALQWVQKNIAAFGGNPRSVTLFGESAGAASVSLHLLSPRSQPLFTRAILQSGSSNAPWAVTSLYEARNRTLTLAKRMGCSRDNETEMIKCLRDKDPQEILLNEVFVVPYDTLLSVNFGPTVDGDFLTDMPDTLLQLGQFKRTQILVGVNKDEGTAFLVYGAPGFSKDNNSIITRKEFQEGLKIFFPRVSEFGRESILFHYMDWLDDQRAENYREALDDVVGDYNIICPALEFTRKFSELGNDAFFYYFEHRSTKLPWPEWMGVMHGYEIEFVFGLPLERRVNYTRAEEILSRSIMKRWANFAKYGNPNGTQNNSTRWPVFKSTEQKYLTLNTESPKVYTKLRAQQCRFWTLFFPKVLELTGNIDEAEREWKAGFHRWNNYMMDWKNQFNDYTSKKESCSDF
Sequence of hAChE (P22303 32-617 isoform P22303-2 limits assumed): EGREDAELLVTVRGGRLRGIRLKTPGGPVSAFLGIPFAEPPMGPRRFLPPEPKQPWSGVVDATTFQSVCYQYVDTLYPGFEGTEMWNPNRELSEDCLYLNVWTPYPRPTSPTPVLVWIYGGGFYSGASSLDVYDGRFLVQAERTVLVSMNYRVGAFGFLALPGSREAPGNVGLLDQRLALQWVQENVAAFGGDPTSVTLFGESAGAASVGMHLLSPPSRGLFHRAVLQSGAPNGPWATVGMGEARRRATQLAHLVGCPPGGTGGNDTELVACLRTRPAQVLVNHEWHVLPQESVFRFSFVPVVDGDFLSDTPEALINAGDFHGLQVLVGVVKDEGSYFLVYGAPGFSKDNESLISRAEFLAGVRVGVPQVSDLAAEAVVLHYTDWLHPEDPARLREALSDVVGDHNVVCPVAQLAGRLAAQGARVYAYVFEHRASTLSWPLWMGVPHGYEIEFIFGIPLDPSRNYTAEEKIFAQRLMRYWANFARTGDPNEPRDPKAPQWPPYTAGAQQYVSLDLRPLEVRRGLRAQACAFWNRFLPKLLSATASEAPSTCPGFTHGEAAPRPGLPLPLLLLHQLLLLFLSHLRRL
Sequence of PAS-AChE (hAChE-PAS region) (P22303 32-617 isoform P22303-2 limits assumed): as above
Sequence of hBACE-1 (P56817 46-501): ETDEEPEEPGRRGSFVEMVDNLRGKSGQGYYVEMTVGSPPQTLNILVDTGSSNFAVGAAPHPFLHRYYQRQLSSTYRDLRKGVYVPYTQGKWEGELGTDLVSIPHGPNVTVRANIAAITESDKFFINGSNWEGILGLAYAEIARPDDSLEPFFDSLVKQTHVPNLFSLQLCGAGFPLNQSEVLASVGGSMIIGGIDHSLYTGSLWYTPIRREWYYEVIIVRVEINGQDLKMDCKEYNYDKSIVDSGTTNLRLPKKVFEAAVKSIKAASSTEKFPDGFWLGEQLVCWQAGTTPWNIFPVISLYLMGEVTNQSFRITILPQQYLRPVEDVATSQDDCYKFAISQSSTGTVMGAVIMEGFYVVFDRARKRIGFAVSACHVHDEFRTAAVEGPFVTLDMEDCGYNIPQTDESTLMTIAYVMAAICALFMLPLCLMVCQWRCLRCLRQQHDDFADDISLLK
Sequence of Aβ1–42 (P05067 672-713): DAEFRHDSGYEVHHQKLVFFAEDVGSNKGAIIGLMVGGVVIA
Sequence of Aβ1–42 with hAChE (P22303 32-588 isoform P22303-2): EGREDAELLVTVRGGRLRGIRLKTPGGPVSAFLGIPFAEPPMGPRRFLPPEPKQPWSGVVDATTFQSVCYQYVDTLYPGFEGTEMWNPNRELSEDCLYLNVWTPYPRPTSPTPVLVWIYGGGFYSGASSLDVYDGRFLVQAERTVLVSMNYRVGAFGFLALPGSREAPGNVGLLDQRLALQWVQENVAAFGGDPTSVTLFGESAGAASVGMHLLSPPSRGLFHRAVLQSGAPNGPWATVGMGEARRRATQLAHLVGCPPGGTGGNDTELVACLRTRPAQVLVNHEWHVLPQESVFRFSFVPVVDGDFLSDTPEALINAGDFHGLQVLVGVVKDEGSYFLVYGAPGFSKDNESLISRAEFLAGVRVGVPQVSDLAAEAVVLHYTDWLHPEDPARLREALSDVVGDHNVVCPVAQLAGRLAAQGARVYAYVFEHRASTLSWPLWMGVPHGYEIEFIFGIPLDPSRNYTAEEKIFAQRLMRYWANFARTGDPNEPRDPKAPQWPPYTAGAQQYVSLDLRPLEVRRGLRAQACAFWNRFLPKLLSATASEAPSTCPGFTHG

For `O=[N+]([O-])c1cc(-c2nn(CN3CCN(Cc4ccccc4)CC3)c(=S)o2)ccc1Cl` [SD-14, 3-((4-Benzylpiperazin-1-yl)methyl)-5-(4-chloro-3-nitrophenyl)-1,3,4-oxadiazole-2(3H)-thione], the “selectivity index hBChE/hAChE” value in data set [1] is on record as 1.710. In addition, the IC50 was 1140 ± 18 nM in data set [1] (IC50 ± SEM hAChE, n = 3); 1000 to 2000 nM in data set [1] (setting [13]); 1.94 ± 0.033 µM in data set [2]; 806 ± 11 nM in [3] (IC50 ± SEM hBACE-1, n = 3). In addition, the “PAS-AChE propidium iodide displacement (%)” value in data set [4] ([I] = 10 μM) was 19.7% and 19.773 ± 1.216%; in [4] ([I] = 50 μM), 36.8% and 36.841 ± 1.069%. Also, the “Pe(exp) PAMPA–BBB” value in [5] was 4.848 10^–6 cm/s. This compound also registered a Papp in [6] of 4.858 ± 0.016 ×10⁻⁶ cm/s.
For the compound `COc1cccc(-c2nn(CN3CCN(Cc4ccccc4)CC3)c(=S)o2)c1` [SD-12, 3-((4-Benzylpiperazin-1-yl)methyl)-5-(3-methoxyphenyl)-1,3,4-oxadiazole-2(3H)-thione], the IC50 in [1] (IC50 ± SEM hAChE, n = 3) was 1940 ± 24 nM; in data set [1] (setting [13]), 1000 to 2000 nM; in data set [2] it was greater than 10 µM; in data set [3], 1000 to 2500 nM; in data set [3] (IC50 ± SEM hBACE-1, n = 3), 1210 ± 16 nM.
For the compound `COc1cc2c(cc1OC)C(=O)C(CC1CCN(Cc3ccccc3)CC1)C2` (stereo not shown) [donepezil, reference compound], in data set [7], the “% Aβ aggregation inhibition, self-induced” value is 21–37%. For the same compound, the “% spontaneous alterations” value in data set [8] is reported as “significant (^b,c,dp < 0.001) increase”. Also, in data set [9], the “escape latency time (ELT)” value was “maximum decline in ELT”, the “time spent in the platform zone” value is on record as “significantly (^bp < 0.001) higher” and the “total number of entries to the platform zone” value is “significantly (^bp < 0.001) different from the Aβ-treated animal group”.
Turning to `S=c1oc(-c2ccccc2Br)nn1CN1CCN(Cc2ccccc2)CC1` [SD-16, 3-((4-Benzylpiperazin-1-yl)methyl)-5-(2-bromophenyl)-1,3,4-oxadiazole-2(3H)-thione], the IC50 was 2410 ± 27 nM in data set [1] (IC50 ± SEM hAChE, n = 3); greater than 10 µM in [2]; 1000 to 2500 nM in [3]; 1800 ± 29 nM in data set [3] (IC50 ± SEM hBACE-1, n = 3). For the same compound, in data set [1] (class in words), the “hAChE inhibitory activity (good/moderate/poor)” value is “moderate to poor”.
Take `FC(F)(F)Oc1ccc(-c2nn(CN3CCN(Cc4ccccc4)CC3)c(=S)o2)cc1` [SD-3, 3-((4-Benzylpiperazin-1-yl)methyl)-5-(4-(trifluoromethoxy)phenyl)-1,3,4-oxadiazole-2(3H)-thione]: the half-inhibitory concentration (IC50) was 1335 ± 12 nM in data set [1] (IC50 ± SEM hAChE, n = 3); 1000 to 2000 nM in data set [1] (setting [13]); greater than 10 µM in data set [2]; 1000 to 2500 nM in [3]; 1110 ± 16 nM in data set [3] (IC50 ± SEM hBACE-1, n = 3).
In the case of `O=[N+]([O-])c1ccccc1-c1nn(CN2CCN(Cc3ccccc3)CC2)c(=S)o1` [SD-5, 3-((4-Benzylpiperazin-1-yl)methyl)-5-(2-nitrophenyl)-1,3,4-oxadiazole-2(3H)-thione], the IC50 in data set [1] (IC50 ± SEM hAChE, n = 3) is 1890 ± 31 nM; in [2] it was greater than 10 µM; in data set [3] it was 1000 to 2500 nM; in data set [3] (IC50 ± SEM hBACE-1, n = 3) it was 1170 ± 21 nM. For the same compound, in data set [1] (class in words), the “hAChE inhibitory activity (good/moderate/poor)” value was “moderate to poor”.
The corresponding values for `Oc1ccc(-c2nn(CN3CCN(Cc4ccccc4)CC3)c(=S)o2)c(O)c1` [SD-17, 3-((4-Benzylpiperazin-1-yl)methyl)-5-(2,4-dihydroxyphenyl)-1,3,4-oxadiazole-2(3H)-thione] are 1792 ± 15 nM, greater than 10 µM, 1000 to 2500 nM, 2150 ± 34 nM and “moderate to poor”.
On to `S=c1oc(-c2ccc(Cl)cc2Cl)nn1CN1CCN(Cc2ccccc2)CC1` [SD-9, 3-((4-Benzylpiperazin-1-yl)methyl)-5-(2,4-dichlorophenyl)-1,3,4-oxadiazole-2(3H)-thione], for which the IC50 is 2110 ± 37 nM in [1] (IC50 ± SEM hAChE, n = 3); greater than 10 µM in [2]; 1000 to 2500 nM in [3]; 1410 ± 31 nM in data set [3] (IC50 ± SEM hBACE-1, n = 3). The “hAChE inhibitory activity (good/moderate/poor)” value in data set [1] (class in words) is “moderate to poor”.
For the compound `N#Cc1cccc(-c2nn(CN3CCN(Cc4ccccc4)CC3)c(=S)o2)c1` [SD-4, 3-(4-((4-Benzylpiperazin-1-yl)methyl)-5-thioxo-4,5-dihydro-1,3,4-oxadiazol-2-yl)benzonitrile], in data set [1], the “selectivity index hBChE/hAChE” value is recorded as 1.534. The IC50 was 1077 ± 9 nM in [1] (IC50 ± SEM hAChE, n = 3); less than 1000 nM in [1] (setting [13]); 1.65 ± 0.019 µM in data set [2]; 651 ± 14 nM in data set [3] (IC50 ± SEM hBACE-1, n = 3). Further, the “PAS-AChE propidium iodide displacement (%)” value in data set [4] ([I] = 10 μM) was 24.6% and 24.661 ± 1.421%; in data set [4] ([I] = 50 μM), 55.1% and 55.157 ± 1.247%. In addition, in data set [10], the “neurotoxicity (MTT, cell population and morphology)” value is “non-neurotoxic”. In addition, the viability at 5 µM in data set [11] was 59.1%. For the same compound, in data set [11], the viability at 10 µM is 71.6%. In addition, in data set [11], the viability at 20 µM is 82.5%. Besides, in data set [7], the “% Aβ aggregation inhibition, self-induced” value is on record as 20–61%. Moreover, the “% Aβ aggregation inhibition, hAChE-induced” value in [12] was 38–79%. In addition, the “Pe(exp) PAMPA–BBB” value in data set [5] was 6.127 10^–6 cm/s. The compound further came in with a Papp in data set [6] of 6.127 ± 0.019 ×10⁻⁶ cm/s.
Turning to `COc1ccc(-c2nn(CN3CCN(Cc4ccccc4)CC3)c(=S)o2)cc1` [SD-13, 3-((4-Benzylpiperazin-1-yl)methyl)-5-(4-methoxyphenyl)-1,3,4-oxadiazole-2(3H)-thione], the IC50 is 1530 ± 28 nM in data set [1] (IC50 ± SEM hAChE, n = 3); 1000 to 2000 nM in data set [1] (setting [13]); greater than 10 µM in [2]; 1000 to 2500 nM in [3]; 1358 ± 12 nM in [3] (IC50 ± SEM hBACE-1, n = 3).
On to `FC(F)(F)c1ccc(-c2nn(CN3CCN(Cc4ccccc4)CC3)c(=S)o2)cc1` [SD-8, 3-((4-Benzylpiperazin-1-yl)methyl)-5-(4-(trifluoromethyl)phenyl)-1,3,4-oxadiazole-2(3H)-thione], for which, in data set [1], the “selectivity index hBChE/hAChE” value is reported as 1.835. For the same compound, the IC50 was 1320 ± 18 nM in data set [1] (IC50 ± SEM hAChE, n = 3); 1000 to 2000 nM in data set [1] (setting [13]); 2.42 ± 0.041 µM in data set [2]; 701 ± 19 nM in data set [3] (IC50 ± SEM hBACE-1, n = 3). The “PAS-AChE propidium iodide displacement (%)” value is 21.446 ± 1.147% in [4] ([I] = 10 μM); 21.4% in data set [4] ([I] = 10 μM, listed as SD-08); 41.709 ± 1.271% in data set [4] ([I] = 50 μM); 41.7% in data set [4] ([I] = 50 μM, listed as SD-08). The “Pe(exp) PAMPA–BBB” value in data set [5] is listed as 5.019 10^–6 cm/s. The same compound showed a Papp in data set [6] of 5.019 ± 0.033 ×10⁻⁶ cm/s.
On to `Nc1ccc(-c2nn(CN3CCN(Cc4ccccc4)CC3)c(=S)o2)cc1` [SD-11, 5-(4-Aminophenyl)-3-((4-benzylpiperazin-1-yl)methyl)-1,3,4-oxadiazole-2(3H)-thione], for which the IC50 in data set [1] (IC50 ± SEM hAChE, n = 3) was 1220 ± 27 nM; in data set [1] (setting [13]), 1000 to 2000 nM; in data set [2] it was greater than 10 µM; in [3] (IC50 ± SEM hBACE-1, n = 3), greater than 5000 nM.
As for `S=c1oc(-c2cccc(Cl)c2)nn1CN1CCN(Cc2ccccc2)CC1` [SD-7, 3-((4-Benzylpiperazin-1-yl)methyl)-5-(3-chlorophenyl)-1,3,4-oxadiazole-2(3H)-thione], the IC50 in data set [1] (IC50 ± SEM hAChE, n = 3) is 1420 ± 22 nM; in data set [1] (setting [13]), less than 1000 nM; in data set [2], greater than 10 µM; in [3] (IC50 ± SEM hBACE-1, n = 3), 885 ± 13 nM.
On the same counts, the results for `Oc1ccc(-c2nn(CN3CCN(Cc4ccccc4)CC3)c(=S)o2)cc1` [SD-10, 3-((4-Benzylpiperazin-1-yl)methyl)-5-(4-hydroxyphenyl)-1,3,4-oxadiazole-2(3H)-thione] are 1220 ± 13 nM, 1000 to 2000 nM, greater than 10 µM and greater than 5000 nM.
The corresponding values for `S=c1oc(-c2ccc(Cl)cc2)nn1CN1CCN(Cc2ccccc2)CC1` [SD-1, 3-((4-Benzylpiperazin-1-yl)methyl)-5-(4-chlorophenyl)-1,3,4-oxadiazole-2(3H)-thione] are 1260 ± 19 nM, 1000 to 2000 nM, greater than 10 µM and 943 ± 18 nM.
`O=[N+]([O-])c1ccc(-c2nn(CN3CCN(Cc4ccccc4)CC3)c(=S)o2)c([N+](=O)[O-])c1` [SD-15, 3-((4-Benzylpiperazin-1-yl)methyl)-5-(2,4-dinitrophenyl)-1,3,4-oxadiazole-2(3H)-thione]: the IC50 in [1] (IC50 ± SEM hAChE, n = 3) was 1420 ± 23 nM; in data set [2], greater than 10 µM; in data set [3], 1000 to 2500 nM; in data set [3] (IC50 ± SEM hBACE-1, n = 3), 1450 ± 22 nM. For the same compound, the “hAChE inhibitory activity (good/moderate/poor)” value in [1] (class in words) was “moderate to poor”.
In the case of `O=[N+]([O-])c1ccc(-c2nn(CN3CCN(Cc4ccccc4)CC3)c(=S)o2)cc1` [SD-2, 3-((4-Benzylpiperazin-1-yl)methyl)-5-(4-nitrophenyl)-1,3,4-oxadiazole-2(3H)-thione], the IC50 in [1] (IC50 ± SEM hAChE, n = 3) is 1107 ± 8 nM; in data set [1] (setting [13]), 1000 to 2000 nM; in data set [2], greater than 10 µM; in [3] (IC50 ± SEM hBACE-1, n = 3) it was 811 ± 23 nM.

Source of the values: article PMC10018501 (ACS Omega, 2023).
